According to patent US20240417410A1, “TRICYCLIC COMPOUNDS FOR THE TREATMENT OF CANCER” (Hoffmann-La Roche Inc., priority 2023, published 2024):

Columns and labels:
[1] = system: DUSP6; experiment: Brain metastasis intracranial model, PD (DUSP6 in brain, qPCR); assay type: in vivo, mouse; details: 30 mg/kg once daily for 14 days, 6 hours post last dose, NCI-H1373-Luc model
Method: Example 24, formulated in 10% DMSO, 10% Solutol HS15, 80% water, was dosed orally to 7-9 weeks female BALB/c nude mice (Vital River Co., LTD.) in […] at 30 mg/kg (dosing volume of 10 ml/kg) once daily for 14 days. Terminal tissue and blood harvest was performed at 6 hours after post last dose of test articles, using 4 mice per group. In brief, whole blood was collected into K2-EDTA tubes and subjected to centrifugation to separate plasma. Brains were collected, rinsed, and homogenized. Mice Brain were analyzed using qPCR using DUSP6 and ACTB TaqMan probes (ABI-4369016, ABI-4351370). All the targets mRNA expression levels were normalized to the housekeeping gene, and the data were represented as fold-changes according to the 2-ΔΔCt method, where […] and ΔΔCt=ΔCt treatment-ΔCt reference, ΔCt reference was chosen as the vehicle group. The data were interpreted by GraphPad Prism, and statistical analysis of difference in the each targets mRNA expression among the groups were conducted. For comparison between two groups, an independent sample t-test will be used. For comparison among three or more groups, a one-way ANOVA (Dunnett's multiple comparisons test) will be performed, p<0.05 was considered to be statistically significant.

[2] = biological target: KRAS G12C-BRAF complex (Homo sapiens (Human), UniProt P01116+P62937, G12C); experiment: KRAS-BRAF with CYPA (500 nM) interaction assay (TR-FRET, Example 136); assay type: biochemical; details: KRAS G12C-BRAF disruption
Chain of KRAS G12C-BRAF complex (P01116-2 other isoform, or with tags, fused parts or gaps G12C): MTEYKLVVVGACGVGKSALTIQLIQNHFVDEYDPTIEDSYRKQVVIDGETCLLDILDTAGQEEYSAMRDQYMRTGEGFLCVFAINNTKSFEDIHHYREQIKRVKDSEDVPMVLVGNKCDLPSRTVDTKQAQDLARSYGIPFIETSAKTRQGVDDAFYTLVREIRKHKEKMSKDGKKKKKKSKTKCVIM
Chain of KRAS G12C-BRAF complex (P62937 whole entry): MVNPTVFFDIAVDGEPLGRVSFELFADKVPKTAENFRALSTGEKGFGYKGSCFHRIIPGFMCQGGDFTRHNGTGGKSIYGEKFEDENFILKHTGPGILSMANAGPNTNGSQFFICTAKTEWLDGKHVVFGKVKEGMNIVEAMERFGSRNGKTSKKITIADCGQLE

## CO[C@@H](C)c1ncc(N2CCN(C)CC2)cc1-c1c2c3cc(cc4c3n1CCC4)-c1csc(n1)C[C@H](NC(=O)[C@H]1[C@H](C)[C@@H]1C)C(=O)N1CCC[C@H](N1)C(=O)OCC(C)(C)C2 (atropisomer, axis not shown; (M)) [Example 24, (1r,2R,3S)-N-[(7S,13S)-(20M)-20-[2-[(1S)-1-methoxyethyl]-5-(4-methylpiperazin-1-yl)-3-pyridyl]-17,17-dimethyl-8,14-dioxo-15-oxa-4-thia-9,21,30,31-tetrazahexacyclo[23.3.1.1^2,5.1^9,13.0^19,27.0^21,26]hentriaconta-1 (28),2,5 (31), 19,25 (29),26-hexaen-7-yl]-2,3-dimethyl-cyclopropanecarboxamide]
[1]
  MAPK activation (DUSP6) in the brain: significantly decreased
[2]
  IC50: 9.7 nM
